Source: US20220151962A1, “NOVEL INHIBITORS OF HISTONE DEACETYLASE 10” (Deutsches Krebsforschungszentrum, priority 2019, published 2022)

Key:
HDAC3/NcoR2 complex = target: T1, HDAC3/NcoR2 complex (Homo sapiens, UniProt O15379); experiment: HDAC-Glo I/II assay, HDAC3/NcoR2 complex; format: biochemical; conditions: recombinant human HDAC3/NcoR2 complex; for IC50: read-out: pIC50 HDAC3 Glo (converted)
T1 construct: purchased BPS Bioscience 50003

HDAC8 = target: T2, HDAC8 (Homo sapiens, UniProt Q9BY41); experiment: HDAC-Glo I/II assay, HDAC8; format: biochemical; design: purchased BPS Bioscience 50008; conditions: recombinant human HDAC8, HDAC-Glo; for IC50: read-out: pIC50 HDAC8 Glo (converted)
T2 sequence (Q9BY41 1-377): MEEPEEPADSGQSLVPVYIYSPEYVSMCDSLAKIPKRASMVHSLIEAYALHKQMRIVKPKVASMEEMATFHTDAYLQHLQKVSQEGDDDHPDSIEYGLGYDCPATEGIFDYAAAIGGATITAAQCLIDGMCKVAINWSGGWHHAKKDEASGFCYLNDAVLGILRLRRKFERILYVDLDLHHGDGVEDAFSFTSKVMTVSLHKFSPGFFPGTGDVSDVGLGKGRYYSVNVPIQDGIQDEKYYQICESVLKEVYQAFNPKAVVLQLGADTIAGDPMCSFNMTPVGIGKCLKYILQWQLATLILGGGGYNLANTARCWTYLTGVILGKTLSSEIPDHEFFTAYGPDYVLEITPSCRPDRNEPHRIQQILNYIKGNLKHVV

HDAC2 = target: T3, HDAC2 (Homo sapiens, UniProt Q92769); experiment: HDAC-Glo I/II assay, HDAC2; format: biochemical; conditions: recombinant human HDAC2, HDAC-Glo; for IC50: read-out: pIC50 HDAC2 Glo (converted)
T3 construct: purchased BPS Bioscience 50002
T3 sequence (Q92769 whole entry): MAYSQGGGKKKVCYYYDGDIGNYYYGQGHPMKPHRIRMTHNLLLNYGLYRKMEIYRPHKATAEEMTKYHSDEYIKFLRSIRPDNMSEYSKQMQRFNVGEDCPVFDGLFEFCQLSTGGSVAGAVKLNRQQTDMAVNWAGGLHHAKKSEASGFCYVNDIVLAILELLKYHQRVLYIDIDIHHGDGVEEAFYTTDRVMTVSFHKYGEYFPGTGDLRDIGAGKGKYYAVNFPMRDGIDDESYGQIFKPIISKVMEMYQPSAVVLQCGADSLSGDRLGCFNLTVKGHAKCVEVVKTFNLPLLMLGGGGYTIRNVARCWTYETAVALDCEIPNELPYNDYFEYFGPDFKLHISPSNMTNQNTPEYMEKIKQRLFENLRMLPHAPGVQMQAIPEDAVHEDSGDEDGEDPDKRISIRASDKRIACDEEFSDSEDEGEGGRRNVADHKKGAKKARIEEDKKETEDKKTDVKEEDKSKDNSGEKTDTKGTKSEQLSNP

HDAC1 = target: T4, HDAC1 (Homo sapiens, UniProt Q13547); experiment: HDAC-Glo I/II assay, HDAC1; format: biochemical; conditions: recombinant human HDAC1, HDAC-Glo; for IC50: read-out: pIC50 HDAC1 Glo (converted)
T4 construct: purchased BPS Bioscience 50051
T4 sequence (Q13547 whole entry): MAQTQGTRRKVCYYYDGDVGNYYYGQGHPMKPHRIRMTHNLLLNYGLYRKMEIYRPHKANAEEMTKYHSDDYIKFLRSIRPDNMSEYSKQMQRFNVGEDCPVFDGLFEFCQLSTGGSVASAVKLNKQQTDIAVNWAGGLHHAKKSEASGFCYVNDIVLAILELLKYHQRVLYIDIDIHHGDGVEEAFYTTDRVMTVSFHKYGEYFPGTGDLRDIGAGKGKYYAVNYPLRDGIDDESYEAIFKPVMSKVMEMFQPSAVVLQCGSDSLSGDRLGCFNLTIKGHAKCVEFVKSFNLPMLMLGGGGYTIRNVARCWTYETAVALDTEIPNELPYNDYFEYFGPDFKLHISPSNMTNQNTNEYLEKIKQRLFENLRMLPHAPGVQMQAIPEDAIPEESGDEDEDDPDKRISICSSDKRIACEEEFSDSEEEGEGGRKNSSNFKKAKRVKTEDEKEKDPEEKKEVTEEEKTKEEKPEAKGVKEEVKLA

HDAC6 = target: T5, HDAC6 (Homo sapiens, UniProt Q9UBN7); experiment: HDAC-Glo I/II assay, HDAC6; format: biochemical; conditions: recombinant human HDAC6, HDAC-Glo; read-out: pIC50 HDAC6 Glo (converted)
T5 construct: purchased BPS Bioscience 50006
T5 sequence (Q9UBN7 1-1215): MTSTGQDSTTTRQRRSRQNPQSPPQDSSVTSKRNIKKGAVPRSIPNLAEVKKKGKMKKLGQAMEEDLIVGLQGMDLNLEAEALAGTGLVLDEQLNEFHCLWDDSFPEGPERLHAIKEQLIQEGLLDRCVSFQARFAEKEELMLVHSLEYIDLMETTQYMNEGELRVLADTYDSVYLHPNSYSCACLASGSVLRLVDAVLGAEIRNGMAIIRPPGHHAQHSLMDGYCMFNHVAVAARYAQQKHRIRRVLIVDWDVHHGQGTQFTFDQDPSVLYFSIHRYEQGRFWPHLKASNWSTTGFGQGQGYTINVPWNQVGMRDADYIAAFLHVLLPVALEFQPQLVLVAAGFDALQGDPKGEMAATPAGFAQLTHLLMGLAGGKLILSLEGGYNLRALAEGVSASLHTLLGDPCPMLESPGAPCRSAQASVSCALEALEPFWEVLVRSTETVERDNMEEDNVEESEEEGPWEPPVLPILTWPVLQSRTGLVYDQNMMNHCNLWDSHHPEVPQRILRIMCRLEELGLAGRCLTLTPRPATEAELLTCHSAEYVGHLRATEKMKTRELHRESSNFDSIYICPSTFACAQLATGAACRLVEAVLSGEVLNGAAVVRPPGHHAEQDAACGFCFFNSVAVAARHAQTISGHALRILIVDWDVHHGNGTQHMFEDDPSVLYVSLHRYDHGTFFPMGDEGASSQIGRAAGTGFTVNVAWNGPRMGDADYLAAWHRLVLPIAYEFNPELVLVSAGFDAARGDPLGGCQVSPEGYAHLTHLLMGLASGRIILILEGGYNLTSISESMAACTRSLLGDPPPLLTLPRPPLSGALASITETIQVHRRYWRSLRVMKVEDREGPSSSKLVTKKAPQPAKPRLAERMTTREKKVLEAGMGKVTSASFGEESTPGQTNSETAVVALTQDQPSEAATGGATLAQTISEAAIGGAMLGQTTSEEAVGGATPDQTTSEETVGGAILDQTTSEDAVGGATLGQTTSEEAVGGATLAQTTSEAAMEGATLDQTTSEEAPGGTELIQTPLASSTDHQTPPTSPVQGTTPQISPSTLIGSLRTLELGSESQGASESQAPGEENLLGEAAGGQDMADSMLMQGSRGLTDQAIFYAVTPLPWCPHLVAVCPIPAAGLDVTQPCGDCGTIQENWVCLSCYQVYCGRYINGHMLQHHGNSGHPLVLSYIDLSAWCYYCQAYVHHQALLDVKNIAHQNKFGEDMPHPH

TwinStrep-GST-HDAC10 = target: T6, TwinStrep-GST-HDAC10 (Homo sapiens, UniProt Q969S8); experiment: HDAC10 TR-FRET assay (Tubastatin-AF647-Tracer displacement); format: binding; conditions: TR-FRET, 60 min at rt; for IC50: read-out: pIC50 HDAC10 FRET (converted)
T6 construct: made in house; host or cells: Sf21 insect cells (baculovirus, pFastBac1)
T6 sequence (Q969S8 1-669): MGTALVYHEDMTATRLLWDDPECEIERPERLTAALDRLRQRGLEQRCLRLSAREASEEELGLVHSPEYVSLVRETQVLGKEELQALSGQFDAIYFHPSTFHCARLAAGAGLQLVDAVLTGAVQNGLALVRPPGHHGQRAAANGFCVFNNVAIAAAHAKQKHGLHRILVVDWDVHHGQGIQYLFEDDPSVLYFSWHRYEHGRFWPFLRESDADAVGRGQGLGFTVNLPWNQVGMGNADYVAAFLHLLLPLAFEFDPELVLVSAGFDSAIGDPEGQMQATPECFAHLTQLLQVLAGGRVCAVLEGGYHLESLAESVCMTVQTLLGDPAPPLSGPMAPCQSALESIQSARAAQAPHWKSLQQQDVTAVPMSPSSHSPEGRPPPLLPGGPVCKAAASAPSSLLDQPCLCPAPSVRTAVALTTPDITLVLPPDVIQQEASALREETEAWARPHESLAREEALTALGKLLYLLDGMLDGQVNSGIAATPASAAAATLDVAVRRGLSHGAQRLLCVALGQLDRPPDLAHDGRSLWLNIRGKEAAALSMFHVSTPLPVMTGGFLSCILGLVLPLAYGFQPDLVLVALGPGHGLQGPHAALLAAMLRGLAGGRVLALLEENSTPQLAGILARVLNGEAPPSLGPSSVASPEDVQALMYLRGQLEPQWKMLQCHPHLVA

T1 sequence (O15379 whole entry): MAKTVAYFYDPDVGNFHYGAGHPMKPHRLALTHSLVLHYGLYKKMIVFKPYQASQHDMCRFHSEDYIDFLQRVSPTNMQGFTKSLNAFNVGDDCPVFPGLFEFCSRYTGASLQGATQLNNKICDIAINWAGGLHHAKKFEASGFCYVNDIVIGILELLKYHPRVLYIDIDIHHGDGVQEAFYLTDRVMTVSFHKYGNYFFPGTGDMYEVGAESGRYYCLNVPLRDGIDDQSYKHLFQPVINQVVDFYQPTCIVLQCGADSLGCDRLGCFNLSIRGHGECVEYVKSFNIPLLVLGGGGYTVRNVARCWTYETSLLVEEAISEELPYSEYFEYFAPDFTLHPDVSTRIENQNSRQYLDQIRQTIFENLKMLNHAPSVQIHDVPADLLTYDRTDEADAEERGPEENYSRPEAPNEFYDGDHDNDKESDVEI
T1 sequence (Q9Y618 395-489 partner limits assumed): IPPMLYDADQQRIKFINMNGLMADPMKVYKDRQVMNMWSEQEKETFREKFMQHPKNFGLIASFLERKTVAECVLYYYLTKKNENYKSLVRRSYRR

Row | Compound | IC50 (HDAC3/NcoR2 complex) | IC50 (HDAC8) | IC50 (HDAC2) | IC50 (HDAC1) | IC50 (HDAC6) | IC50 (TwinStrep-GST-HDAC10) | pIC50 HDAC10 FRET (TwinStrep-GST-HDAC10) | pIC50 HDAC3 Glo (HDAC3/NcoR2 complex) | pIC50 HDAC2 Glo (HDAC2) | pIC50 HDAC1 Glo (HDAC1) | pIC50 HDAC8 Glo (HDAC8)
1 | CN(CCCC(=O)NO)CCC(=O)Nc1ccccc1 [DKFZ-711] | 79.4 µM | 3.98 µM |  |  |  |  |  |  |  |  | 
2 | CCN(CCCC(=O)NO)CCC(=O)Nc1ccccc1 [DKFZ-714, 4-(Ethyl(3-oxo-3-(phenylamino)propyl)amino)-N-hydroxybutanamide] | ~158 µM | 5.01 µM | > 200 µM | 50.1 µM | 6.31 µM |  |  |  |  |  | 
3 | CN(CCCC(=O)NO)CCNC(=O)c1ccccc1 [DKFZ-728, N-(2-((4-(Hydroxyamino)-4-oxobutyl)(methyl)amino)ethyl)benzamide] | > 100 µM | 15.8 µM | 50.1 µM |  |  |  |  |  |  |  | 
4 | CN(CCCC(=O)NO)CCNC(=O)c1ccc(-c2ccccc2)cc1 [DKFZ-746, N-(2-((4-(Hydroxyamino)-4-oxobutyl)(methyl)amino)ethyl)-[1,1′-biphenyl]-4-carboxamide] | ~31.6 µM | 5.01 µM | ~39.8 µM | 2.51 µM | 3.16 µM | 0.0251 µM |  |  |  |  | 
5 | CN(CCCC(=O)NO)CCNC(=O)c1cccc(N)c1 [DKFZ-747, 3-Amino-N-(2-((4-(hydroxyamino)-4-oxobutyl)(methyl)amino)ethyl)benzamide] | > 100 µM | 12.6 µM | > 100 µM | 25.1 µM | 6.31 µM | 0.0398 µM |  |  |  |  | 
6 | Cc1[nH]c2ccccc2c1CC(=O)NCCN(C)CCCC(=O)NO [DKFZ-749, N-Hydroxy-4-(methyl(2-(2-(2-methyl-1H-indol-3-yl)acetamido)ethyl)amino)butanamide] | > 100 µM | 2.51 µM | > 100 µM | 10 µM | 3.16 µM | 0.0794 µM |  |  |  |  | 
7 | CN(CCCC(=O)NO)CCNC(=O)c1ccc(O)cc1 [DKFZ-751, 4-Hydroxy-N-(2-((4-(hydroxyamino)-4-oxobutyl)(methyl)amino)ethyl)benzamide] | > 100 µM | 25.1 µM | > 100 µM | 15.8 µM | 2 µM | 0.00794 µM |  |  |  |  | 
8 | CN(CCCC(=O)NO)CCNC(=O)c1ccc(N)cc1 [DKFZ-752, 4-Amino-N-(2-((4-(hydroxyamino)-4-oxobutyl)(methyl)amino)ethyl)benzamide] | > 100 µM | 20 µM | > 100 µM | 15.8 µM | 3.98 µM | 0.0158 µM |  |  |  |  | 
9 | CN(CCCC(=O)NO)CCNC(=O)c1ccccc1Br [DKFZ-753, 2-Bromo-N-(2-((4-(hydroxyamino)-4-oxobutyl)(methyl)amino)ethyl)benzamide] | > 100 µM | 7.94 µM | > 100 µM | 25.1 µM | 6.31 µM | 0.0158 µM |  |  |  |  | 
10 | CN(CCCC(=O)NO)CCNC(=O)c1ccc2cn[nH]c2c1 [DKFZ-754, N-(2-((4-(Hydroxyamino)-4-oxobutyl)(methyl)amino)ethyl)-1H-indazole-6-carboxamide] | > 100 µM | 12.6 µM | > 100 µM | 7.94 µM | 3.16 µM | 0.00794 µM |  |  |  |  | 
11 | CN(CCCC(=O)NO)CC(=O)Nc1ccccc1 [DKFZ-772, N-Hydroxy-4-(methyl(2-oxo-2-(phenylamino)ethyl)amino)butanamide] | > 100 µM | 2.51 µM | 31.6 µM | 20 µM |  |  |  |  |  |  | 
12 | (1r,3r)-N-Hydroxy-3-((3-oxo-3-(phenylamino)propyl)amino)cyclobutanecarboxamide [DKFZ-759] |  |  |  |  |  |  | 6.3 | <4.0 | <4.0 | 4.4 | 4.9
13 | (1s,3s)-N-Hydroxy-3-((3-oxo-3-(phenylamino)propyl)amino)cyclobutanecarboxamide [DKFZ-767] |  |  |  |  |  |  | 6.9 | ~4.0 | 4.6 | 4.9 | 5.1
